In patent US20040242579A1, “Triazine derivatives and their use as sunscreens” (priority 2001, published 2004):

Test: UV absorption (λmax, molar extinction ε, extinction value E 1%, 1 cm) of the triazine UV filters
Type: physicochemical
[1] = at λmax 320 nm, solvent not stated
[2] = second band at 224 nm, solvent not stated

Row | Structure (SMILES) | E (1%, 1 cm) (at λmax, in ethanol) | ε (at λmax, in ethanol) | λmax (in ethanol) | E (1%, 1 cm) (at λmax, in dioxane) | ε (at λmax, in dioxane) | λmax (in dioxane) | also measured
1 | CC1(C)CC(=O)C(=CNc2nc(NC=C3C(=O)CC(C)(C)CC3=O)nc(-c3ccccc3)n2)C(=O)C1 [Example 1] |  |  |  |  |  |  | E (=extinction value) (1%, 1 cm) [1]: 1045; ε [1]: 51000 L/mol/cm; λmax (main band, solvent not stated): 320 nm; E (1%, 1 cm) [2]: 732; ε [2]: 35700 L/mol/cm; γmax (second band, solvent not stated): 224 nm
2 | CC(=O)C(=CNc1nc(NC=C(C(C)=O)C(C)=O)nc(-c2ccccc2)n1)C(C)=O [Example 2] | 1053 | 42900 L/mol/cm | 322 nm |  |  |  | 
3 | CC1(C)OC(=O)C(=CNc2nc(NC=C3C(=O)OC(C)(C)OC3=O)nc(-c3ccccc3)n2)C(=O)O1 [Example 3] |  |  |  | 1374 | 68000 L/mol/cm | 332 nm | 
4 | CCOC(=O)/C(=C\Nc1nc(N/C=C(\C(C)=O)C(=O)OCC)nc(-c2ccccc2)n1)C(C)=O [Example 4] | 983 | 46000 L/mol/cm | 319 nm |  |  |  | 
5 | CCOC(=O)/C(=C\Nc1nc(N/C=C(\C(C)=O)C(=O)OCC)nc(N/C=C(\C(C)=O)C(=O)OCC)n1)C(C)=O [Example 5] |  |  |  | 1350 |  | 325 nm | 
6 | CC1(C)OC(=O)C(=CNc2nc(NC=C3C(=O)OC(C)(C)OC3=O)nc(NC=C3C(=O)OC(C)(C)OC3=O)n2)C(=O)O1 [Example 6] |  |  |  | 1053 | 61 956 | 326 nm | 
